Results taken from patent publication US20200352976A1, “HYPOMETHYLATING AGENTS FOR USE IN TREATMENT OF CANCER” (Otsuka Pharmaceutical Co., Ltd, priority 2019, published 2020).
Values joined by “and” are separate entries in the source; they are usually repeats but may differ in a detail not shown here. Identical values can stand only once.

Columns and labels:
[1] = Phase 1/2 trial safety: adverse events, all-cause mortality; type: in vivo, human
Source text: Safety was monitored throughout the study by physical examinations and clinical laboratory tests, including hematology, chemistry for liver and renal function, urinalysis, pregnancy tests, pharmacokinetics, epi-genetics, buccal swab, and pharmacogenetic markers. Electrocardiograms were obtained at baseline screening and day 1 of each treatment cycle.
The primary endpoint was overall response, which was a composite of complete response (CR), partial response, marrow complete response (mCR), and hematological improvement. Overall response was assessed by local investigators. Secondary endpoints included the individual components of overall response, time to response, duration of response, overall survival, blood transfusion and platelet transfusion independence at weeks 8 and 16, and safety, including the incidence of adverse events, and all-cause early mortality at 30, 60, and 90 days. Exploratory analyses were done to examine the association between baseline characteristics and overall response.
Treatment-emergent adverse events, which are events that first occurred or worsened after the first dose of study drug until 30 days after the last dose or until the start of an alternative anticancer treatment (whichever occurred first), and all-cause 30-day, 60-day, and 90-day cumulative mortality, were summarized descriptively.

[2] = test system: treatment naïve acute myeloid leukemia (TN-AML); experiment: Phase 3 randomized trial Compound I-1 vs treatment choice: CR, OS, PFS, EFS, subgroup analyses; type: in vivo, human; details: for EFS HR (95% CI) / PFS HR (95% CI): Compound I-1/TC
Protocol: A Phase 3 randomized trial comparing Compound I-1 to a treatment choice of azacitidine, decitabine, or Low Dose Ara-C(LDAC) in patients with AML was performed.
The patients were randomized 1:1 to either Compound I-1 (60 mg/m^2/d subcutaneous injection for 5 days of a 28-day cycle), or a preselected treatment choice of azacitidine, decitabine, or LDAC at standard doses. AML diagnosis and response status were assessed by an independent blinded central pathologist. CR and OS were the co-primary endpoints.
Compound I-1 powder was reconstituted at a concentration of 100 mg/mL and administered subcutaneously (SC) at a dose of 60 mg/m^2 daily on days 1-5 of a 28-day cycle.
LDAC was given at a dose of 20 mg SC twice daily (BID) on days 1-10 of a 28-day cycle. Decitabine was given at a dose of 20 mg/m^2 as a 1-hour intravenous (IV) infusion on days 1-5 of a 28-day cycle. Azacitidine was given IV or SC daily on days 1-7 of a 28-day cycle at a dose of 75 mg/m^2. Other TC treatment parameters such as dose adjustment guidelines followed locally approved prescribing information and institutional standard practice.
Two co-primary endpoints were used: complete response (CR) rate based on modified International Working Group (IWG) 2003 AML Response Criteria and OS (the number of days from randomization to death). Secondary endpoints included CRc (CR+CR with incomplete blood count recovery [CRi]+CR with incomplete platelet recovery [CRp]) rate, number of days alive and out of the hospital (NDAOH), progression-free survival (PFS), health related quality of life (QOL) by EQ-5D (consisting of the EQ-5D-5L descriptive system and the EQ Visual Analogue Scale [EQ VAS]), duration of CR (the time from first CR to time of relapse), incidence and severity of adverse events (AEs), and 30- and 60-day all-cause mortality.
CR rate was compared between Compound I-1 and TC groups using Cochran Mantel-Haenszel test at an alpha of 0.04, stratified by the stratification factors used at randomization. OS curves were estimated using Kaplan-Meier (K-M) method and formally compared between Compound I-1 and TC groups using a 2-sided stratified log-rank test, stratified by the same stratification factors used at randomization. Sensitivity analyses were conducted for CR rate and OS to evaluate the robustness of the treatment effect.
CRc rate was compared between treatment groups using a Cochran Mantel-Haenszel test with the same stratification variable as for CR and OS. NDAOH was compared between treatment groups using an analysis of variance model (ANOVA) with stratification variables used as fixed factors. PFS was compared between treatment groups using a stratified log-rank test.
The number of RBC and platelet transfusions up to Day 180 were summarized descriptively. 95% CI of the mean was also provided. The EQ-5D-5L index values and EQ VAS up to Day 180 were analyzed descriptively and using a mixed model approach for repeated measures.
Data obtained during the trial of EXAMPLE 4 were further analyzed for selected subgroups of patients including patients who achieved CR in patients who received at least 4 or 6 treatment cycles.
TN-AML patients ineligible for intensive chemotherapy (IC) due to age ≥75 y, coexisting morbidities, or ECOG PS 2-3 were randomized 1:1 to either Compound I-1 (60 mg/m^2/d SC for 5-days Q28 days) or a preselected treatment choice (TC) of azacitidine (AZA), decitabine (DEC), or low-dose Ara-C(LDAC) at the prescribed dosing schedule. AML diagnosis and response status were assessed by an independent central pathologist blinded to randomization assignment. Complete response (CR) and overall survival (OS) were the co-primary endpoints. The patients' characteristics, number of treatment cycles, reasons for treatment discontinuation, CR, and OS including analyses by number of cycles received including prospective subgroups, and OS analyses of responders and non-responders were analyzed. […]

[3] = number of days alive and out of the hospital
[4] = patients with at least 4 cycles
[5] = patients with at least 4 cycles (n = 476)
[6] = patients with at least 6 cycles
[7] = patients with at least 6 cycles (n = 375)

## Nc1ncn([C@H]2CC(OP(=O)(O)OC[C@H]3O[C@@H](n4cnc5c(=O)[nH]c(N)nc54)CC3O)[C@@H](CO)O2)c(=O)n1 (stereo partly drawn) [Compound I-1]
[1]; all treated
  Patients who died from serious adverse events: Seven
[1]; human, in vivo
  Drug-related serious adverse event anemia: 3%
  Drug-related serious adverse event pneumonia: 7%
  Drug-related serious adverse event thrombocytopenia: 3%
[1]; of 102 patients
  30-day all-cause mortality: 1%
  60-day all-cause mortality: 4%
  90-day all-cause mortality: 9%
[1]; pneumonia with 90 mg/m^2 and septic shock with 60 mg/m^2
  Serious adverse events that led to death considered treatment related: two
[2]; Compound I-1 vs TC
  CR odds ratio (logistic regression): 1.14
  CR rate Treatment Difference: 1.92%
  CRc rate Treatment Difference: 0.39
  NDAOH LS Mean Treatment Difference: −7.8
[2]; Compound I-1 vs each treatment choice
  Overall survival hazard ratio: less than 1
[2]; ITT
  12-month survival rate: 37%
  24-month survival rate: 18%
  Median PFS: 5.3 months
  Overall Survival K-M Estimate, 25th percentile: 71.0 days
  Overall Survival K-M Estimate, 75th percentile: 584.0 days
  Overall Survival K-M Estimate, Median: 213 days and 213.0 days
  PFS K-M Estimate, Median: 159 days
  Survival, 75th percentile: 19.5 months
[2]; ITT Population (n = 815)
  Median EFS: 5.1 months
  Median OS: 7.1 months
[2]; ITT Population
  EFS HR (95% CI): 0.85 (0.74-0.98), p 0.02
[2]; ITT, Compound I-1 vs TC
  PFS HR: 0.99 (0.86-1.15), p 0.93
[2]; ITT, as fraction
  12-month survival rate: 0.37
  24-month survival rate: 0.18
[2]; ITT, N = 408 / 407
  CRc (CR + CRi + CRp): 93 subjects
[2]; ITT, N = 408 Compound I-1, N = 407 TC
  Complete Response (CR): 79 subjects
[2]; baseline TP53 mutations (94 patients), Compound I-1 vs treatment choice
  Overall survival hazard ratio: 1.8
[2]; complete responders
  Median duration of CR: 7.2 months
[2]; first 6 months
  EQ VAS LS mean change from baseline: 0.87
  Platelet transfusions, mean: 12.5 units
  RBC transfusions, mean: 16.2 units
[2]; first 6 months, Compound I-1 vs TC
  Index EQ-5D-5L score LS mean difference: −0.019
[2]; in vivo
  Mean NDAOH over 6 months: 3.3 months
  NDAOH per patient-year rate: 297 days
[2]; landmark analysis (approximately 4 months), at least 4 cycles
  One-year survival rate: 51%
[2]; landmark analysis, greater than 3 treatment cycles, Compound I-1 vs TC
  Overall survival hazard ratio: 0.78
[2]; n = 408 I-1, n = 407 TC
  Treatment Discontinuation Before 4 Cycles: Progressive Disease: 7.6%
  Treatment Discontinuation Before 6 Cycles: Progressive Disease: 10.8%
[2]; non-responders, at least 6 cycles, Compound I-1 vs TC
  OS HR: 0.73
[2]; [3]
  NDAOH in First 6 Months, LS Mean: 98.9
  NDAOH in First 6 Months, Mean: 98.1
[2]; patients who achieved an objective response (CR, CRp, CRi, or PR)
  Median EFS: 17.4 m
[2]; patients who achieved an objective response, Compound I-1 vs TC
  EFS HR: 0.68
[2]; [4]
  Median OS: 15.6 months
  EFS HR (95% CI): 0.74 (0.61-0.9), p 0.002
  PFS HR (95% CI): 0.88 (0.73-1.06), p 0.17
[2]; patients with at least 4 cycles (n = 235 I-1; n = 241 TC)
  CR Rate: 33.6%
[2]; [5]
  Median EFS: 12.1 months
  Median PFS: 10.3 months
[2]; patients with at least 4 cycles, Compound I-1 vs TC
  OS HR (95% CI): 0.78 (0.64, 0.96), p 0.02 and 0.78 (0.64-0.96), p 0.02
[2]; [6]
  Median OS: 19.5 months
  EFS HR (95% CI): 0.69 (0.56-0.86), p 0.001
  PFS HR (95% CI): 0.86 (0.7-1.07), p 0.17
[2]; patients with at least 6 cycles (n = 187 I-1; n = 188 TC)
  CR Rate: 40.1%
[2]; [7]
  Median EFS: 14.9 months
  Median PFS: 11.9 months
[2]; patients with at least 6 cycles, Compound I-1 vs TC
  OS HR (95% CI): 0.69 (0.54, 0.88), p 0.002 and 0.69 (0.54-0.88), p 0.002
[2]; responders (CR, CRp, CRi, or PR), at least 6 cycles, Compound I-1 vs TC
  OS HR: 0.66
[2]; subjects who achieved any CR (CR, CRp, or CRi), Compound I-1 vs TC, post hoc
  OS HR: 0.72
[2]; without TP53 mutations (696 patients), Compound I-1 vs treatment choice
  Overall survival hazard ratio: 0.86
